Source: patent US6440938B1, “Prevention and/or treatment of allergic conditions” (The Victoria University of Manchester, priority 1997, dated 2002)

Legend:
Calu-3 cells = experiment: DNA fragmentation (agarose gel), Calu-3 cells; assay type: cell-based, human; settings: BB-250 5μM, E-64 10μM; for inhibition of cysteine proteinase fraction-induced DNA fragmentation: fraction 80 azocoll units ml^−1 (FIG. 7b)
Procedure: Cells were plated on 60×15 mm petri dishes and grown for 2-4 days in serum-containing EMEM under tissue culture conditions in a 5% CO2 atmosphere. Cells were then exposed to treatments in serum-free EMEM containing 20 mM HEPES whilst under aerobic incubation at 37° C. At defined time points, cells were harvested with a scraper and pooled with detached cells in the supernatant. Cells were centrifuged at 550×g for 5 min and their DNA extracted (Nucleon II, Scotlab, Coatbridge, Stratchclyde). The extracted DNA was resuspended in 100μl TE buffer (10 mM Tris-HCL and 1 mM Na2EDTA) overnight at room temperature and its purity determined spectrophotometrically. Equal amounts of DNA were applied in 4:1 ratio with sample buffer (0.25% bromophenol blue and 40% w/v sucrose in water) to each lane of 2% (w/v) agarose gels and electrophoresis performed at 50V for 2-3h in TAE buffer (0.04M Tris-acetate and 0.001M EDTA). Bands of DNA in the gels (which had ethidium bromide incorporated into them) were visualized by ultra-violet light.

Der p 1 = biological target: T1, Der p 1 (Dermatophagoides pteronyssinus, UniProt P08176); settings: literature (Herbert et al. 1995; Hewitt et al. 1995, 1997); cited from earlier work
T1 sequence (P08176 99-320): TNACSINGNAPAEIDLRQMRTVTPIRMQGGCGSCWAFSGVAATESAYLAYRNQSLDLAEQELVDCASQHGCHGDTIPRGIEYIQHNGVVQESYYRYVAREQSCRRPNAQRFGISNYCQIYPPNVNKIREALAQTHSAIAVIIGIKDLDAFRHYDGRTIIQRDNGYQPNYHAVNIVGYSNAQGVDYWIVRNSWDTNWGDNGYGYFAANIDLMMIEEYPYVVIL

Calu-3 cell monolayers = experiment: Mannitol permeability of Calu-3 cell monolayers exposed to HDM proteinase fractions; assay type: cell-based, human; settings: for inhibition of the permeability change caused by the serine proteinase fraction: E-64 10μM, fraction 94 azocoll units ml^−1, 18 h (FIG. 4b); for mannitol permeability: P<0.05, n=5
Procedure: (§1) Measurements of mannitol clearance were performed on confluent cell monolayers that had been propagated on 0.4μm pore diameter Costar Transwell™ inserts coated with an ungelled ultra-thin undercoat of Madrigel. Coating was achieved by addition of 250μl aliquots of Matrigel (diluted 1:500 v/v in EMEM) to the interior of the insert followed by ambient incubation for 60 min under aseptic conditions. The solution was then aspirated and the inserts gently washed with medium before the addition of a confluent density of cell suspension.
(§2) Cells (2-5×10^5 per cm^2 growth area) were plated onto Matrigel-coated inserts. We use the term ‘insert’ as meaning the filter unit containing the cells and the term ‘well’ as referring to the cavities of the tissue culture plate. To monitor growth and integrity, inserts were taken at random, washed gently in PBS and stained under subdued illumination with acridine orange and ethidium bromide (1mg ml^−1 each in PBS). Inserts were examined by fluorescence microscopy and were used only when confluence with high viability was attained.
(§3) At confluence, the medium was aspirated from the wells and replaced with serum- and bicarbonate-free EMEM buffered with 20 mM HEPES and containing 2 mM L-glutamine. The medium from the inserts was then gently removed and replaced with 300μl of serum-free EMEM containing [^14C]-mannitol (1μCi ml^−1 and 1 mg ml^−1 unlabelled mannitol in HEPES-buffered medium). The Transwell™ plates were then equilibrated for 30 min at 37° C. on a Luckham R100 orbital shaker. Triplicate 100μl aliquots of the unused labelled mannitol solution were sampled and their radioactivity content determined by liquid scintillation spectrometry (Beckman LS6000IC) following addition of 5 ml Opti-Fluor.
(§4) After the equilibration period, the inserts were placed in fresh wells containing 1 ml of serum-free HEPES buffered EMEM and incubated at 37° C. with continuous gentle shaking. The medium from the original wells was retained and its radioactivity content determined after the addition of 10 ml Opti-Fluor. […] At timed intervals, 20μl aliquots of the basolateral bathing fluid were removed and the amount of ^14C mannitol quantified as described above for the calculation of clearance volume.
Paracellular permeability of mannitol was determined in accordance with the procedure described in our copending U.K. Patent Application No. 9715058 and was calculated from measurements of clearance volume at defined time points. Clearance estimates were made over 3-5h and were calculated according to the relationship: [formula]
(§5) Under conditions where diffusion is the sole means of transepithelial movement of the solute, dVprobe/dt approximates closely to the permeability-surface area product thus allowing estimation of the permeability of mannitol in the composite system of cells, filter, unstirred layers and protein coating (Pt). Epithelial permeability can be calculated from the measured variable by considering the Matrigel-coated filter and unstirred layers as a system of series permeabilities. Thus: [formula]
Unstirred layer thicknesses are independent of membrane permeability under ideal conditions thus P3 in equations (3) and (4) are identical. Subtracting equations (2) and (3) thus permits the calculation of the permeability of the epithelial monolayer (5). [formula] […]

MDCK cell monolayers = experiment: Mannitol permeability of MDCK cell monolayers exposed to HDM proteinase fractions; assay type: cell-based, canine; settings: for inhibition of the action of the serine proteinase fraction on mannitol permeability: AEBSF 100μM, fraction 127 azocoll units ml^−1, 18 h (FIG. 3b); for effect of inhibitor alone on intrinsic epithelial permeability: inhibitor per se, no proteinase fraction (FIG. 3)
Procedure: as §1, §2, §3, §4
Clearance estimates were made over 3-5h and were calculated according to the relationship: [formula]
as §5
Unstirred layer thicknesses are independent of membrane permeability under ideal conditions thus P3 in equations (3) and (4) are identical. Subtracting equations (2) and (3) thus permits the calculation of the permeability of the epithelial monolayer (5). [formula]
Analysis of variance was performed after log transformation of the permeability data and probability values for the different treatments assigned using the least significant difference test. Data are presented as the geometric mean values with indicated standard errors of n experimental observations. Probability levels of P<0.05 were considered statistically significant.

[1] = system: intercellular junctions of MDCK cells (ZO-1, desmoplakin); experiment: Immunocytochemical visualization of intercellular junctions (ZO-1, desmoplakin); assay type: cell-based, canine
Procedure: To study the effects of proteinases and inhibitors on intercellular junctions, MDCK cells were cultured on coverslips and treated with the appropriate proteinase and/or inhibitor for the desired time period. The cells were fixed in ice-cold methanol before binding of rat anti-ZO-1 (mAb R40.76) (Stevenson et al., 1986; Anderson et al., 1988) and mouse anti-desmoplakin (mAb 11-5F) (Parrish et al., 1987). Indirect fluorescent antibody staining was performed using FITC- and TRITC-conjugated second antibodies. Microscopy was carried out using a Zeiss Axiovert microscope with x40 magnification oil immersion Fluar objective. Specimens were illuminated using excitation and emission filter sets for FITC and TRITC. Cells were photographed as described above.

ICE/ced-3 caspase family = settings: literature; cited from earlier work
[2] = biological target: T2, HDM cysteine proteinase fraction (50% precipitate) (Dermatophagoides pteronyssinus, UniProt P08176); experiment: Enzyme degradation of chromogenic substrates by the 50% ammonium sulphate precipitate; assay type: biochemical, D. pteronyssinus; settings: data not shown
T2 construct: tissue Commonwealth Serum Laboratory, Parkville, Australia; host or cells: spent culture medium of D. pteronyssinus, 50% saturated ammonium sulphate pellet
T2 sequence (P08176 99-320): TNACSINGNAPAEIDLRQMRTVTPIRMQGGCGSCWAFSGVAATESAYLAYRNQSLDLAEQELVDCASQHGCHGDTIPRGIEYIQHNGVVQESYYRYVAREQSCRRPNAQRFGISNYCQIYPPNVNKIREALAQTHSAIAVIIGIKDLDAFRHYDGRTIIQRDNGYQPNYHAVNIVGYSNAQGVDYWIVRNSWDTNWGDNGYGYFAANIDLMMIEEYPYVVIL
Description: HDM proteinase allergens have not yet been prepared in catalytically competent form by recombinant cellular expression of the mature enzyme protein. For convenience, and to enable future large scale screening of potential inhibitors in the absence of catalytically active recombinant proteins, we sought to separate the cysteine and serine proteinase activity by simple biochemical fractionation of spent medium in which HDM had been grown. During culture the HDM release allergens into the medium resulting in the accumulation of proteins suitable for purification. Spent medium from cultures of D. pteronyssinus (Commonwealth Serum Laboratory, Parkville, Australia) was dissolved in 5 volumes of phosphate buffered saline and then centrifuged at 48,400×g and 4° C. for 20 min. Ammonium sulphate was added gradually to the stirred supernatant at 4° C. to achieve a 50% saturated solution. After centrifugation (48,400×g, 20 min, 4° C.) the pellet, found by enzymatic assay to be enriched in cysteine proteinase activity, was redissolved in a minimum volume of distilled water. […] Protein content of the extracts was measured using the […] technique with serum albumin as standard (Smith et al, 1985). Proteinase activity was measured using the Azocoll degradation assay as described elsewhere (Herbert et al., 1995; Chavira et al., 1984). […]

Row | Molecule | inhibition of cysteine proteinase fraction-induced DNA fragmentation (Calu-3 cells) | inhibition of Der p 1 activity / effects (Der p 1) | inhibition of the permeability change caused by the serine proteinase fraction (Calu-3 cell monolayers; Calu-3) | inhibition of the action of the serine proteinase fraction on mannitol permeability (MDCK cell monolayers) | effect of inhibitor alone on intrinsic epithelial permeability (MDCK cell monolayers) | also measured
1 | CNC(=O)[C@H](Cc1ccccc1)NC(=O)[C@H](CC(C)C)[C@H](CS(=O)(=O)c1cccs1)C(=O)NO [BB-250, [4-(N-hydroxyamino)-2R-isobutyl-3S-(thiophen-2-yl-sulphonylmethyl)succinyl]-L-phenylalanine-N-methylamide] | attenuated |  |  |  |  | inhibition of serine proteinase fraction-induced DNA fragmentation (Calu-3 cells; fraction 94 azocoll units ml^−1 (FIG. 7b)): attenuated
2 | N=C(N)c1ccc(CS(=O)(=O)F)cc1 [APMSF] |  | reported to be inhibited |  |  |  | 
3 | Cl.NCCc1ccc(S(=O)(=O)F)cc1 [AEBSF, 4-(2-aminoethyl)-benzenesulphonyl fluoride hydrochloride] |  |  | ablated | inhibited | Neither inhibitor per se exerted any observable effect | inhibition of the action of the cysteine proteinase fraction on mannitol permeability (Calu-3 cell monolayers; Calu-3, AEBSF 100μM, fraction 80 azocoll units ml^−1, 18 h (FIG. 4a)): failed to inhibit; mannitol permeability (Calu-3 cell monolayers; Calu-3 treated with serine proteinase fraction plus AEBSF): 10.20±0.01 ×10−6 cm s^−1; inhibition of serine proteinase fraction-dependent changes in ZO-1/desmoplakin staining ([1]; AEBSF 100μM, fraction 94 azocoll units ml^−1): inhibited
4 | CC(C)C[C@H](NC(=O)[C@H]1O[C@@H]1C(=O)O)C(=O)NCCCCN=C(N)N (relative stereo) [E-64, L-trans-epoxysuccinyl-leucylamido-(4-guanidino)-butane] | inhibited | sensitive to inhibition | did not inhibit |  | no observable effect | sensitivity of ICE/ced-3 caspases to the inhibitor (ICE/ced-3 caspase family): insensitive; mannitol permeability (Calu-3 cell monolayers; Calu-3 treated with cysteine proteinase fraction plus E-64): 4.84±0.32 ×10^−6 cm s^−1; catalytic activity of the 50% precipitate [2]: inhibitable; inhibition of the effect of the cysteine proteinase fraction on mannitol permeability (MDCK cell monolayers; E-64 10μM, fraction 80 azocoll units ml^−1, 18 h (FIG. 3a)): attenuated; inhibition of cysteine proteinase fraction-dependent changes in ZO-1/desmoplakin staining ([1]; E-64 10μM, fraction 80 azocoll units ml^−1): inhibited
5 | SBTI: serine proteinase inhibitor; abbreviation not expanded in the patent (protein, UniProt P01070 25-205, looked up) Trypsin inhibitor A: DFVLDNEGNPLENGGTYYILSDITAFGGIRAAPTGNERCPLTVVQSRNELDKGIGTIISSPYRIRFIAEGHPLSLKFDSFAVIMLCVGIPTEWSVVEDLPEGPAVKIGENKDAMDGWFRLERVSDDEFNNYKLVFCPQQAEDDKCGDIGISIDHDDGTRRLVVSKNKPLVVQFQKLDKESL |  |  |  | less effectively | Neither inhibitor per se exerted any observable effect | 
